Measurements reported in US4515941A, “23-Demycinosyldesmycosin derivatives” (Toyo Jozo Kabushiki Kaisha, priority 1982, dated 1985).
≈ marks a conversion by molar mass, not a printed value. Read-outs that look alike come from different tables or passages of the source.

Experiments:
Format in all cases: cell-based
[1] = tested on: Staphylococcus aureus ATCC 6538P; test: MIC, Staphylococcus aureus ATCC 6538P; conditions: ATCC6538P, read-out: MIC
[2] = tested on: Staphylococcus aureus MS353; test: MIC, Staphylococcus aureus MS353; conditions: Staphylococcus aureus MS353; read-out: MIC
[3] = tested on: Staphylococcus aureus MS353 A0; test: MIC, Staphylococcus aureus MS353 A0 (macrolide resistant); conditions: MS353A0, macrolide resistant bacteria A group
Source text: (§1) *macrolide resistant bacteria A group (clinical isolates of erythromycin,
(§2) oleandomycin and 16membered macrolide antibiotic resistant strains.)

[4] = tested on: Staphylococcus aureus 0127; test: MIC, Staphylococcus aureus 0127 (macrolide resistant)
Source text: as §1, §2

[5] = tested on: Staphylococcus epidermis sp-al-1; test: MIC, Staphylococcus epidermis sp-al-1; conditions: SPAL1; Staphylococcus epidermis sp-al-1; read-out: MIC
[6] = tested on: Streptococcus pyogenes N.Y.5; test: MIC, Streptococcus pyogenes N.Y.5; conditions: read-out: MIC
[7] = tested on: Streptococcus pyogenes 1022; test: MIC, Streptococcus pyogenes 1022 (macrolide resistant); conditions: Streptococcus pyogenes 1022; macrolide resistant bacteria A group; read-out: MIC
Source text: as §1, §2

[8] = tested on: Streptococcus faecalis 1501; test: MIC, Streptococcus faecalis 1501; conditions: Enterococcus faecalis; Streptococcus faecalis 1501; read-out: MIC
[9] = tested on: Streptococcus agalactiae 1020; test: MIC, Streptococcus agalactiae 1020; conditions: Streptococcus agalactiae 1020; read-out: MIC
Sarcina lutea ATCC 9341 = test: MIC, Sarcina lutea ATCC 9341; conditions: Micrococcus luteus, ATCC9341
[10] = tested on: Corynebacterium diptheriae P.Y.8; test: MIC, Corynebacterium diptheriae P.Y.8; conditions: Corynebacterium diptheriae P.Y.8; read-out: MIC
[11] = tested on: Bacillus subtilis ATC 6633; test: MIC, Bacillus subtilis ATC 6633; conditions: ATC6633; Bacillus subtilis ATC 6633; read-out: MIC
[12] = tested on: Escherichia coli NIHJ-JC2; test: MIC, Escherichia coli NIHJ-JC2; conditions: NIHJJC2
[13] = tested on: Klebsiella pneumoniae ATCC 10031; test: MIC, Klebsiella pneumoniae ATCC 10031; conditions: ATCC10031; Klebsiella pneumoniae ATCC 10031; read-out: MIC
Salmonella typhosa H901 = test: MIC, Salmonella typhosa H901; conditions: Salmonella enterica, TYPHOSA
Shigella sonnei E33 = test: MIC, Shigella sonnei E33
Proteus vulgaris OX19 = test: MIC, Proteus vulgaris OX19; conditions: Proteus vulgaris OX19; read-out: MIC
[14] = tested on: Pseudomonas aeruginosa IAM 1095; test: MIC, Pseudomonas aeruginosa IAM 1095; conditions: IAM1095; Pseudomonas aeruginosa IAM 1095; read-out: MIC
[15] = tested on: Staphylococcus aureus MS353 C36; test: MIC, Staphylococcus aureus MS353 C36; conditions: MS353C36
[16] = tested on: Staphylococcus aureus 0119; test: MIC, Staphylococcus aureus 0119 (macrolide resistant); conditions: macrolide resistant bacteria A group
Source text: as §1, §2

[17] = tested on: Micrococcus flavus ATCC 10240; test: MIC, Micrococcus flavus ATCC 10240; conditions: ATCC10240; Micrococcus flavus ATCC 10240; read-out: MIC
Escherichia coli B = test: MIC, Escherichia coli B
[18] = tested on: Salmonella enteritidis Gaertner; test: MIC, Salmonella enteritidis Gaertner; conditions: Salmonella enterica; Salmonella enteritidis Gaertner; read-out: MIC
[19] = tested on: Shigella flexineri type 3a; test: MIC, Shigella flexineri type 3a; conditions: TYPE3A
Serratia marcescens = test: MIC, Serratia marcescens; conditions: read-out: MIC
[20] = Staphylococcus aureus 0127, macrolide resistant bacteria A group, read-out: MIC

Row | SMILES | MIC [1] | MIC [2] | MIC [3] | MIC [4, 20] | MIC [5] | MIC [6] | MIC [7] | MIC [8] | MIC [9] | MIC (Sarcina lutea ATCC 9341) | MIC [10] | MIC [11] | MIC [12] | MIC [13] | MIC (Salmonella typhosa H901) | MIC (Shigella sonnei E33) | MIC (Proteus vulgaris OX19) | MIC [14] | MIC [15] | MIC [16] | other results
1 | CCC1OC(=O)CC(O)C(C)C(OC2OC(C)C(O)C(N(C)C)C2O)C(CC=O)CC(C)C(=O)C=CC(C)=CC1COCc1ccccc1 (centres unmarked) [OCH 2 C6 H5, 23-O-benzyl-23-demycinosyldesmycosin] | ≤ 0.05 µg/mL | ≤ 0.05 µg/mL | 50 µg/mL (≈ 72.7 µM) | 100 µg/mL (≈ 145 µM) | ≤ 0.05 µg/mL | ≤ 0.05 µg/mL | 3.1 µg/mL (≈ 4.51 µM) | 0.05 µg/mL (≈ 0.0727 µM) | ≤ 0.05 µg/mL | ≤ 0.05 µg/mL | ≤ 0.05 µg/mL | ≤ 0.05 µg/mL | 25 µg/mL (≈ 36.3 µM) | 6.3 µg/mL (≈ 9.16 µM) | 100 µg/mL (≈ 145 µM) | 25 µg/mL (≈ 36.3 µM) | 3.1 µg/mL (≈ 4.51 µM) | 50 µg/mL (≈ 72.7 µM) |  |  | 
2 | CCC1OC(=O)CC(O)C(C)C(OC2OC(C)C(O)C(N(C)C)C2O)C(CC=O)CC(C)C(=O)C=CC(C)=CC1COc1ccc(Cl)cc1 (centres unmarked) | 0.1 µg/mL (≈ 0.141 µM) | 0.1 µg/mL (≈ 0.141 µM) | 25 µg/mL (≈ 35.3 µM) | 25 µg/mL (≈ 35.3 µM) | ≤ 0.05 µg/mL | ≤ 0.05 µg/mL | 12.5 µg/mL (≈ 17.6 µM) | 0.1 µg/mL (≈ 0.141 µM) | ≤ 0.05 µg/mL | ≤ 0.05 µg/mL | ≤ 0.05 µg/mL | 0.1 µg/mL (≈ 0.141 µM) | 50 µg/mL (≈ 70.6 µM) | 3.1 µg/mL (≈ 4.38 µM) | > 100 µg/mL | 50 µg/mL (≈ 70.6 µM) | 12.5 µg/mL (≈ 17.6 µM) | > 100 µg/mL | ≤ 0.05 µg/mL | 50 µg/mL (≈ 70.6 µM) | MIC [17]: ≤ 0.05 µg/mL; MIC (Escherichia coli B): 50 µg/mL (≈ 70.6 µM); MIC [18]: > 100 µg/mL; MIC [19]: 6.3 µg/mL (≈ 8.89 µM); MIC (Serratia marcescens): 50 µg/mL (≈ 70.6 µM)
3 | CCC1OC(=O)CC(O)C(C)C(OC2OC(C)C(O)C(N(C)C)C2O)C(CC=O)CC(C)C(=O)C=CC(C)=CC1CSc1ccccc1 (centres unmarked) [SC6 H5] | 0.1 µg/mL (≈ 0.145 µM) | 0.1 µg/mL (≈ 0.145 µM) | 25 µg/mL (≈ 36.2 µM) |  | ≤ 0.05 µg/mL | ≤ 0.05 µg/mL | 25 µg/mL (≈ 36.2 µM) | ≤ 0.05 µg/mL | ≤ 0.05 µg/mL | ≤ 0.05 µg/mL | ≤ 0.05 µg/mL | 0.1 µg/mL (≈ 0.145 µM) | 50 µg/mL (≈ 72.5 µM) | 1.6 µg/mL (≈ 2.32 µM) | 50 µg/mL (≈ 72.5 µM) | 50 µg/mL (≈ 72.5 µM) | 12.5 µg/mL (≈ 18.1 µM) | 100 µg/mL (≈ 145 µM) |  |  | 
4 | CCC1OC(=O)CC(O)C(C)C(OC2OC(C)C(O)C(N(C)C)C2O)C(CC=O)CC(C)C(=O)C=CC(C)=CC1CSCc1ccccc1 (centres unmarked) [SCH2 C6 H5, 23-benzylthio-23-demycinosyl-23-deoxydesmycosin] | ≤ 0.05 µg/mL | ≤ 0.05 µg/mL | 50 µg/mL (≈ 71 µM) |  | ≤ 0.05 µg/mL | ≤ 0.05 µg/mL |  | ≤ 0.05 µg/mL | ≤ 0.05 µg/mL | ≤ 0.05 µg/mL | ≤ 0.05 µg/mL | 0.1 µg/mL (≈ 0.142 µM) | 50 µg/mL (≈ 71 µM) | 1.6 µg/mL (≈ 2.27 µM) | 50 µg/mL (≈ 71 µM) | 25 µg/mL (≈ 35.5 µM) | 6.3 µg/mL (≈ 8.95 µM) | 100 µg/mL (≈ 142 µM) |  |  | 
5 | CCC1OC(=O)CC(O)C(C)C(OC2OC(C)C(O)C(N(C)C)C2O)C(CC=O)CC(C)C(=O)C=CC(C)=CC1COc1ccc(Cl)cc1Cl (centres unmarked) | 0.2 µg/mL (≈ 0.269 µM) | 0.2 µg/mL (≈ 0.269 µM) | 12.5 µg/mL (≈ 16.8 µM) |  | ≤ 0.05 µg/mL | ≤ 0.05 µg/mL | 6.3 µg/mL (≈ 8.48 µM) | 0.1 µg/mL (≈ 0.135 µM) | ≤ 0.05 µg/mL | ≤ 0.05 µg/mL | ≤ 0.05 µg/mL | 0.1 µg/mL (≈ 0.135 µM) | > 100 µg/mL | 3.1 µg/mL (≈ 4.17 µM) | > 100 µg/mL | > 100 µg/mL | 25 µg/mL (≈ 33.7 µM) | > 100 µg/mL | 0.1 µg/mL (≈ 0.135 µM) | 25 µg/mL (≈ 33.7 µM) | MIC ([4]; Staphylococcus aureus, 0127): 12.5 µg/mL (≈ 16.8 µM); MIC [17]: ≤ 0.05 µg/mL; MIC (Escherichia coli B): > 100 µg/mL; MIC [18]: > 100 µg/mL; MIC [19]: 25 µg/mL (≈ 33.7 µM); MIC (Serratia marcescens): 25 µg/mL (≈ 33.7 µM)
